# Experimental data: ChEMBL document CHEMBL3784926, “Concise total synthesis of water soluble metatacarboline A, C, D, E and F and its anticancer activity” (Eur J Med Chem, 2016)
# Calls of active or inactive are those of the source. The calls are words filed in the database; no cut-off is given here.
# Key:
# [1] = test system: C6; test: Antiproliferative activity against rat C6 cells assessed as cell viability after 24 hrs by MTT assay; type: functional, cell-based; conditions: for IC50: C6, 24 h
# [2] = Solubility of the compound in water after 5 mins; type: physicochemical
# [3] = test system: C6; test: Cell cycle arrest in rat C6 cells assessed as accumulation at G2/M phase at 400 uM after 24 hrs by propidium iodide staining based flow cytometric analysis (reference value: 20.2%); type: functional
# [4] = test system: C6; test: Cell cycle arrest in rat C6 cells assessed as accumulation at G2/M phase at 40 uM after 24 hrs by propidium iodide staining based flow cytometric analysis (reference value: 20.2%); type: functional
# [5] = test system: C6; test: Antiproliferative activity against rat C6 cells assessed as inhibition of colony forming ability at 400 uM after 7 days by methylene blue staining; values are per cent of control; conditions: C6, 168 h
# [6] = Solubility of the compound in water at 0.01 g after 5 mins; type: physicochemical
# [7] = test system: C6; test: Cell cycle arrest in rat C6 cells assessed as accumulation at G2/M phase at 120 uM after 24 hrs by propidium iodide staining based flow cytometric analysis (reference value: 20.2%); type: functional
# [8] = test system: C6; test: Antiproliferative activity against rat C6 cells assessed as inhibition of colony forming ability at 600 uM after 7 days by methylene blue staining; values are per cent of control; conditions: C6, 168 h
# [9] = test system: C6; test: Cell cycle arrest in rat C6 cells assessed as accumulation at G2/M phase at 200 uM after 24 hrs by propidium iodide staining based flow cytometric analysis (reference value: 20.2%); type: functional
# [10] = test system: C6; test: Antiproliferative activity against rat C6 cells assessed as inhibition of colony forming ability at 200 uM after 7 days by methylene blue staining; values are per cent of control; conditions: C6, 168 h
# [11] = test system: C6; test: Induction of apoptosis in rat C6 cells assessed as decrease in Bclxl expression at 100 to 600 uM after 24 hrs by Western blot analysis; type: functional, cell-based
# [12] = test system: C6; test: Antiproliferative activity against rat C6 cells assessed as inhibition of colony forming ability at 40 uM after 7 days by methylene blue staining; values are per cent of control; conditions: C6, 168 h
# [13] = test system: C6; test: Antiproliferative activity against rat C6 cells assessed as inhibition of colony forming ability at 120 uM after 7 days by methylene blue staining; values are per cent of control; conditions: C6, 168 h
# [14] = test system: C6; test: Cell cycle arrest in rat C6 cells assessed as accumulation at sub G0/G1 phase at 400 uM after 24 hrs by propidium iodide staining based flow cytometric analysis (reference value: 0.6 %); type: functional
# [15] = test system: C6; test: Induction of apoptosis in rat C6 cells assessed as decrease in Bcl2 expression at 100 to 600 uM after 24 hrs by Western blot analysis; type: functional, cell-based
# [16] = test system: C6; test: Antiproliferative activity against rat C6 cells assessed as inhibition of colony forming ability at 800 uM after 7 days by methylene blue staining; values are per cent of control; conditions: C6, 168 h
# [17] = test system: C6; test: Induction of apoptosis in rat C6 cells assessed as PARP cleavage at 100 to 600 uM after 24 hrs by Western blot analysis; type: functional, cell-based
# [18] = test system: C6; test: Induction of apoptosis in rat C6 cells assessed as DNA fragmentation at 300 uM after 24 hrs by TUNEL assay relative to control; type: functional, cell-based
# [19] = test system: C6; test: Cell cycle arrest in rat C6 cells assessed as accumulation at sub G0/G1 phase at 100 uM after 24 hrs by propidium iodide staining based flow cytometric analysis (reference value: 0.6 %); type: functional
# [20] = test system: C6; test: Induction of apoptosis in rat C6 cells assessed as cleaved caspase 3 at 100 to 600 uM after 24 hrs by Western blot analysis; type: functional, cell-based
# [21] = test system: C6; test: Induction of apoptosis in rat C6 cells assessed as decrease in pro-caspase 8 expression at 100 to 600 uM after 24 hrs by Western blot analysis; type: functional, cell-based
# [22] = test system: C6; test: Induction of apoptosis in rat C6 cells assessed as upregulation of p53 expression at 100 to 600 uM after 24 hrs by Western blot analysis; type: functional, cell-based
# [23] = test system: C6; test: Cell cycle arrest in rat C6 cells assessed as accumulation at sub G0/G1 phase at 200 uM after 24 hrs by propidium iodide staining based flow cytometric analysis (reference value: 0.6 %); type: functional
structure (smiles),measurement,setting,value
O=C(O)c1cc2c([nH]c3ccccc32)c(CCC(=O)N2CCC[C@H]2C(=O)O)n1,Activity,[1],Dose-dependent effect
same,solubility at 5 min,[2],10000 µg/mL
CC(C)[C@H](NC(=O)c1cc2c([nH]c3ccccc32)c(CCC(=O)N2CCC[C@H]2C(=O)O)n1)C(=O)O,Activity,[1],Dose-dependent effect
same,IC50,[1],250 µM
same,Activity,[3],23.9%
same,Activity,[4],24.4%
same,colony formation (% of control) at 400 µM,[5],35%
same,solubility,[6],soluble
same,Activity,[7],22.8%
same,colony formation (% of control) at 600 µM,[8],15%
same,Activity,[9],18.3%
same,colony formation (% of control) at 200 µM,[10],55%
O=C(N[C@@H](CO)C(=O)O)c1cc2c([nH]c3ccccc32)c(CCC(=O)N2CCC[C@H]2C(=O)O)n1,Activity,[1],Dose-dependent effect
same,solubility,[6],soluble
C[C@H](NC(=O)c1cc2c([nH]c3ccccc32)c(CCC(=O)N2CCC[C@H]2C(=O)O)n1)C(=O)O,Activity,[1],Dose-dependent effect
same,solubility,[6],soluble
C[C@H](O)[C@H](NC(=O)c1cc2c([nH]c3ccccc32)c(CCC(=O)N2CCC[C@H]2C(=O)O)n1)C(=O)O,Activity,[11],Active
same,Activity,[1],Dose-dependent effect
same,IC50,[1],150 µM
same,colony formation (% of control) at 40 µM,[12],85%
same,colony formation (% of control) at 120 µM,[13],75%
same,colony formation (% of control) at 400 µM,[5],25%
same,Activity,[14],95.1%
same,solubility,[6],soluble
same,Activity,[15],Active
same,colony formation (% of control) at 800 µM,[16],5%
same,Activity,[17],Active
same,Activity,[18],Active
same,Activity,[19],4.7%
same,Activity,[20],Active
same,Activity,[21],Active
same,Activity,[22],Active
same,Activity,[23],43.7%
same,colony formation (% of control) at 200 µM,[10],45%
